# According to PMC9395446, “First-in-human phase 1/1b study to evaluate sitravatinib in patients with advanced solid tumors” (Investigational New Drugs, 2022):
# Experiment: Safety in phase 1/1b study (DLTs, TRAEs, TEAEs; CTCAE v4.03)
# Format: in vivo, human
# From the text: Safety assessments included evaluation of DLTs, AEs, physical examinations, vital sign measurements, electrocardiogram recordings and laboratory tests.
# A DLT was defined as a grade ≥ 4 hematologic abnormality lasting ≥ 4 days; grade 3 thrombocytopenia with clinically significant bleeding; febrile neutropenia; clinically significant grade ≥ 3 non-hematologic AEs not related to underlying malignancy; intolerable grade 2 AEs; or toxicity resulting in an inability to deliver 80% of the dose during the first treatment cycle.
# The safety population included all patients who received ≥ 1 dose of sitravatinib. […] The PK evaluable population included all patients with sufficient concentration-time data for PK parameter evaluation. The modified intent-to-treat (mITT) population included all phase 1b patients who received ≥ 1 dose of study drug.
# [1] = safety population (N = 193), any grade
smiles,measurement,setting,value
"COCCNCc1ccc(-c2cc3nccc(Oc4ccc(NC(=O)C5(C(=O)Nc6ccc(F)cc6)CC5)cc4F)c3s2)nc1 [sitravatinib, Sitravatinib]","Abdominal pain TRAE, any grade",Phase 1,0 n (%)
same,"Abdominal pain TRAE, grade ≥3",Phase 1,0 n (%)
same,"Anemia TEAE, any grade",Phase 1,5 (15.6) n (%)
same,"Anemia TEAE, grade ≥3",Phase 1,1 (3.1) n (%)
same,Any TEAE,Phase 1,31 (96.9) n (%)
same,Any TRAE,Phase 1,24 (75.0) n (%)
same,"Asthenia TEAE, any grade",Phase 1,4 (12.5) n (%)
same,"Asthenia TEAE, grade ≥3",Phase 1,0 n (%)
same,"Back pain TEAE, any grade",Phase 1,8 (25.0) n (%)
same,"Blood and lymphatic system disorders TEAE, any grade",Phase 1,7 (21.9) n (%)
same,"Blood and lymphatic system disorders TEAE, grade ≥3",Phase 1,2 (6.3) n (%)
same,"Blood creatinine increased TEAE, any grade",Phase 1,3 (9.4) n (%)
same,"Blood creatinine increased TEAE, grade ≥3",Phase 1,0 n (%)
same,"Cardiac disorders TEAE, any grade",Phase 1,3 (9.4) n (%)
same,"Cardiac disorders TEAE, grade ≥3",Phase 1,2 (6.3) n (%)
same,"Constipation TEAE, any grade",Phase 1,5 (15.6) n (%)
same,"Constipation TEAE, grade ≥3",Phase 1,0 n (%)
same,"Constipation TRAE, any grade",Phase 1,2 (6.3) n (%)
same,"Constipation TRAE, grade ≥3",Phase 1,0 n (%)
same,"Cough TEAE, any grade",Phase 1,12 (37.5) n (%)
same,"Cough TEAE, grade ≥3",Phase 1,0 n (%)
same,"Decreased appetite TEAE, any grade",Phase 1,15 (46.9) n (%)
same,"Decreased appetite TEAE, grade ≥3",Phase 1,1 (3.1) n (%)
same,"Decreased appetite TRAE, any grade",Phase 1,7 (21.9) n (%)
same,"Decreased appetite TRAE, grade ≥3",Phase 1,0 n (%)
same,"Dehydration TEAE, any grade",Phase 1,5 (15.6) n (%)
same,"Dehydration TEAE, grade ≥3",Phase 1,1 (3.1) n (%)
same,"Diarrhea TEAE, any grade",Phase 1,13 (40.6) n (%)
same,"Diarrhea TEAE, grade ≥3",Phase 1,3 (9.4) n (%)
same,"Diarrhea TRAE, any grade",Phase 1,8 (25.0) n (%)
same,"Diarrhea TRAE, grade ≥3",Phase 1,2 (6.3) n (%)
same,"Dizziness TEAE, any grade",Phase 1,5 (15.6) n (%)
same,"Dizziness TRAE, any grade",Phase 1,2 (6.3) n (%)
same,"Dizziness TRAE, grade ≥3",Phase 1,0 n (%)
same,"Dry mouth TEAE, any grade",Phase 1,6 (18.8) n (%)
same,"Dry mouth TEAE, grade ≥3",Phase 1,0 n (%)
same,"Dry mouth TRAE, any grade",Phase 1,4 (12.5) n (%)
same,"Dry mouth TRAE, grade ≥3",Phase 1,0 n (%)
same,"Dysphonia TEAE, any grade",Phase 1,5 (15.6) n (%)
same,"Dysphonia TEAE, grade ≥3",Phase 1,0 n (%)
same,"Dysphonia TRAE, any grade",Phase 1,2 (6.3) n (%)
same,"Dysphonia TRAE, grade ≥3",Phase 1,0 n (%)
same,"Dyspnea TEAE, any grade",Phase 1,7 (21.9) n (%)
same,"Dyspnea TEAE, grade ≥3",Phase 1,3 (9.4) n (%)
same,"Edema peripheral TEAE, any grade",Phase 1,7 (21.9) n (%)
same,"Edema peripheral TEAE, grade ≥3",Phase 1,1 (3.1) n (%)
same,"Endocrine disorders TEAE, any grade",Phase 1,6 (18.8) 6 (18.8) n (%)
same,"Fatigue TEAE, any grade",Phase 1,17 (53.1) n (%)
same,"Fatigue TEAE, grade ≥3",Phase 1,3 (9.4) n (%)
same,"Fatigue TRAE, any grade",Phase 1,13 (40.6) n (%)
same,"Fatigue TRAE, grade ≥3",Phase 1,1 (3.1) n (%)
same,"Gastrointestinal disorders TEAE, any grade",Phase 1,25 (78.1) n (%)
same,"Gastrointestinal disorders TEAE, grade ≥3",Phase 1,4 (12.5) n (%)
same,"General disorders and administration site conditions TEAE, any grade",Phase 1,21 (65.6) n (%)
same,"General disorders and administration site conditions TEAE, grade ≥3",Phase 1,3 (9.4) n (%)
same,"Headache TEAE, any grade",Phase 1,9 (28.1) n (%)
same,"Hypertension TEAE, any grade",Phase 1,11 (34.4) n (%)
same,"Hypertension TEAE, grade ≥3",Phase 1,6 (18.8) 6 (18.8) n (%)
same,"Hypertension TRAE, any grade",Phase 1,8 (25.0) n (%)
same,"Hypertension TRAE, grade ≥3",Phase 1,5 (15.6) n (%)
same,"Hypokalemia TEAE, any grade",Phase 1,3 (9.4) n (%)
same,"Hypokalemia TEAE, grade ≥3",Phase 1,0 n (%)
same,"Hypomagnesemia TEAE, any grade",Phase 1,3 (9.4) n (%)
same,"Hypomagnesemia TEAE, grade ≥3",Phase 1,0 n (%)
same,"Hyponatremia TEAE, any grade",Phase 1,3 (9.4) n (%)
same,"Hyponatremia TEAE, grade ≥3",Phase 1,3 (9.4) n (%)
same,"Hypophosphatemia TEAE, any grade",Phase 1,2 (6.3) n (%)
same,"Hypophosphatemia TEAE, grade ≥3",Phase 1,1 (3.1) n (%)
same,"Hypothyroidism TEAE, any grade",Phase 1,6 (18.8) 6 (18.8) n (%)
same,"Hypothyroidism TRAE, any grade",Phase 1,3 (9.4) n (%)
same,"Hypothyroidism TRAE, grade ≥3",Phase 1,0 n (%)
same,"Infections and infestations TEAE, any grade",Phase 1,16 (50.0) n (%)
same,"Infections and infestations TEAE, grade ≥3",Phase 1,5 (15.6) n (%)
same,"Injury, poisoning, procedural complications TEAE, any grade",Phase 1,4 (12.5) n (%)
same,"Injury, poisoning, procedural complications TEAE, grade ≥3",Phase 1,0 n (%)
same,"Investigations TEAE, any grade",Phase 1,16 (50.0) n (%)
same,"Investigations TEAE, grade ≥3",Phase 1,6 (18.8) n (%)
same,"Lipase increased TEAE, any grade",Phase 1,3 (9.4) n (%)
same,"Lipase increased TEAE, grade ≥3",Phase 1,1 (3.1) n (%)
same,"Metabolism and nutrition disorders TEAE, any grade",Phase 1,21 (65.6) n (%)
same,"Metabolism and nutrition disorders TEAE, grade ≥3",Phase 1,4 (12.5) n (%)
same,"Musculoskeletal and connective tissue disorders TEAE, any grade",Phase 1,19 (59.4) n (%)
same,"Nausea TEAE, any grade",Phase 1,13 (40.6) n (%)
same,"Nausea TEAE, grade ≥3",Phase 1,1 (3.1) n (%)
same,"Nausea TRAE, any grade",Phase 1,6 (18.8) n (%)
same,"Nausea TRAE, grade ≥3",Phase 1,0 n (%)
same,"Neoplasms benign, malignant, unspecified TEAE, any grade",Phase 1,3 (9.4) n (%)
same,"Neoplasms benign, malignant, unspecified TEAE, grade ≥3",Phase 1,3 (9.4) n (%)
same,"Nervous system disorders TEAE, any grade",Phase 1,14 (43.8) n (%)
same,"PPE syndrome TEAE, any grade",Phase 1,4 (12.5) n (%)
same,"PPE syndrome TEAE, grade ≥3",Phase 1,1 (3.1) n (%)
same,"PPE syndrome TRAE, any grade",Phase 1,4 (12.5) n (%)
same,"PPE syndrome TRAE, grade ≥3",Phase 1,1 (3.1) n (%)
same,"Pain in extremity TEAE, any grade",Phase 1,2 (6.3) n (%)
same,"Proteinuria TEAE, any grade",Phase 1,2 (6.3) n (%)
same,"Proteinuria TRAE, any grade",Phase 1,2 (6.3) n (%)
same,"Proteinuria TRAE, grade ≥3",Phase 1,0 n (%)
same,"Psychiatric disorders TEAE, any grade",Phase 1,7 (21.9) n (%)
same,"Psychiatric disorders TEAE, grade ≥3",Phase 1,1 (3.1) n (%)
same,"Rash TEAE, any grade",Phase 1,5 (15.6) n (%)
same,"Rash TEAE, grade ≥3",Phase 1,0 n (%)
same,"Rash TRAE, any grade",Phase 1,4 (12.5) n (%)
same,"Rash TRAE, grade ≥3",Phase 1,0 n (%)
same,"Renal and urinary disorders TEAE, any grade",Phase 1,9 (28.1) n (%)
same,"Respiratory, thoracic and mediastinal disorders TEAE, any grade",Phase 1,22 (68.8) n (%)
same,"Respiratory, thoracic and mediastinal disorders TEAE, grade ≥3",Phase 1,4 (12.5) n (%)
same,Serious TEAE,Phase 1,9 (28.1) n (%)
same,Serious TRAE,Phase 1,3 (9.4) n (%)
same,"Skin and subcutaneous tissue disorders TEAE, any grade",Phase 1,21 (65.6) n (%)
same,"Skin and subcutaneous tissue disorders TEAE, grade ≥3",Phase 1,1 (3.1) n (%)
same,"Stomatitis TEAE, any grade",Phase 1,4 (12.5) n (%)
same,"Stomatitis TEAE, grade ≥3",Phase 1,0 n (%)
same,"Stomatitis TRAE, any grade",Phase 1,3 (9.4) n (%)
same,"Stomatitis TRAE, grade ≥3",Phase 1,0 n (%)
same,TEAE grade ≥3,Phase 1,20 (62.5) n (%)
same,TEAE leading to death,Phase 1,3 (9.4) n (%)
same,TEAE leading to discontinuation,Phase 1,5 (15.6) n (%)
same,TEAE leading to treatment modification,Phase 1,13 (40.6) n (%)
same,TRAE grade ≥3,Phase 1,10 (31.3) n (%)
same,TRAE leading to death,Phase 1,0 n (%)
same,TRAE leading to discontinuation,Phase 1,2 (6.3) n (%)
same,TRAE leading to treatment modification,Phase 1,12 (37.5) n (%)
same,"UTI TEAE, any grade",Phase 1,3 (9.4) n (%)
same,"UTI TEAE, grade ≥3",Phase 1,2 (6.3) n (%)
same,"Vascular disorders TEAE, any grade",Phase 1,13 (40.6) n (%)
same,"Vascular disorders TEAE, grade ≥3",Phase 1,6 (18.8) 6 (18.8) n (%)
same,"Vomiting TEAE, any grade",Phase 1,11 (34.4) n (%)
same,"Vomiting TEAE, grade ≥3",Phase 1,1 (3.1) n (%)
same,"Vomiting TRAE, any grade",Phase 1,6 (18.8) n (%)
same,"Vomiting TRAE, grade ≥3",Phase 1,0 n (%)
same,"Weight decreased TEAE, any grade",Phase 1,4 (12.5) n (%)
same,"Weight decreased TEAE, grade ≥3",Phase 1,0 n (%)
same,"Weight decreased TRAE, any grade",Phase 1,2 (6.3) n (%)
same,"Weight decreased TRAE, grade ≥3",Phase 1,0 n (%)
same,Recommended dose for further exploration,"QD, defined in phase 1b due to tolerability",120 mg
same,Maximum tolerated dose (MTD),"daily (QD), phase 1 dose escalation, mTPI method",150 mg
same,TRAE leading to death (cardiac arrest),overall population,0.5%
same,Patients with DLT,"phase 1, 80 mg",one
same,Patients with DLT,"phase 1, 200 mg",three
same,DLT-evaluable phase 1 patients with a DLT,"phase 1, 10–200 mg",14.3%
same,DLT-evaluable phase 1 patients with a DLT (n/N),"phase 1, 10–200 mg",4/28
same,"Each reported DLT (fatigue, mucosal inflammation, peripheral sensory neuropathy, PPE syndrome), share of phase 1 population","phase 1, n = 1 each",3.6%
same,"Discontinuation due to diarrhea, nausea and fatigue (each)",safety population (N = 193),2.1%
same,Grade ≥ 3 TRAE diarrhea,safety population (N = 193),10.4%
same,Grade ≥ 3 TRAE fatigue,safety population (N = 193),7.3%
same,Grade ≥ 3 TRAE hypertension,safety population (N = 193),20.7%
same,Patients discontinued due to TRAEs,safety population (N = 193),13.5%
same,Patients with any TRAE,safety population (N = 193),90.2%
same,Patients with grade ≥ 3 TRAEs,safety population (N = 193),53.4%
same,TRAEs leading to treatment modification (dose reduction or interruption),safety population (N = 193),62.2%
same,Treatment modification due to PPE syndrome,safety population (N = 193),11.9%
same,Treatment modification due to diarrhea,safety population (N = 193),17.6%
same,Treatment modification due to fatigue,safety population (N = 193),15.0%
same,Treatment modification due to hypertension,safety population (N = 193),15.0%
same,TRAE diarrhea,[1],50.8%
same,TRAE fatigue,[1],43.0%
same,TRAE hypertension,[1],40.4%
same,TRAE nausea,[1],30.1%
